By IC50 is commonly meant the point on the concentration scale where inhibition reaches its midpoint. Low readings indicate greater potency in that assay, high ones weaker potency in that assay.

Sequence of MTP (P55157 19-894, species assumed): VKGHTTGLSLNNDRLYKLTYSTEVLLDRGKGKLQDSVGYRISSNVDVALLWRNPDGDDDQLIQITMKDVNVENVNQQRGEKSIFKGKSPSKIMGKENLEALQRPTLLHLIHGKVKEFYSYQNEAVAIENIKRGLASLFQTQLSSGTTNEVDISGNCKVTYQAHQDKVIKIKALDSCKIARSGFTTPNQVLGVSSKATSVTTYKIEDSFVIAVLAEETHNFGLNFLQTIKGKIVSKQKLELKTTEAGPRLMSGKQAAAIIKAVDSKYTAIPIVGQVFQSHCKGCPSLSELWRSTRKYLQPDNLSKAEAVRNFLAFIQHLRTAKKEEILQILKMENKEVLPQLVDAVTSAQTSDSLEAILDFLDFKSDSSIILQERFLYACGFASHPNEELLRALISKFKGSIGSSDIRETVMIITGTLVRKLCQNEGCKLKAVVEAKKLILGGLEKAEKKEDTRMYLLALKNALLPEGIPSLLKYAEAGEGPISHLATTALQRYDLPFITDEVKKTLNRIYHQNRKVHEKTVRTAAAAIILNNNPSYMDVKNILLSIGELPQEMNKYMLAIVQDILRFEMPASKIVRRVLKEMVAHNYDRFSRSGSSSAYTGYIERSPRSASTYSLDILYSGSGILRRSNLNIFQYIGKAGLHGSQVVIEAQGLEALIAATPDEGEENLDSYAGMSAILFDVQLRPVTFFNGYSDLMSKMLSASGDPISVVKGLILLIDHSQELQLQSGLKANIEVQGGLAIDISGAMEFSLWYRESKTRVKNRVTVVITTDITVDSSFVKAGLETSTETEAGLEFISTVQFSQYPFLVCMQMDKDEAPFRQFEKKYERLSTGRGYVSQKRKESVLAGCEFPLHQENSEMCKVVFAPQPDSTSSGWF
Sequence of MTP (P07237 18-508 partner, species assumed): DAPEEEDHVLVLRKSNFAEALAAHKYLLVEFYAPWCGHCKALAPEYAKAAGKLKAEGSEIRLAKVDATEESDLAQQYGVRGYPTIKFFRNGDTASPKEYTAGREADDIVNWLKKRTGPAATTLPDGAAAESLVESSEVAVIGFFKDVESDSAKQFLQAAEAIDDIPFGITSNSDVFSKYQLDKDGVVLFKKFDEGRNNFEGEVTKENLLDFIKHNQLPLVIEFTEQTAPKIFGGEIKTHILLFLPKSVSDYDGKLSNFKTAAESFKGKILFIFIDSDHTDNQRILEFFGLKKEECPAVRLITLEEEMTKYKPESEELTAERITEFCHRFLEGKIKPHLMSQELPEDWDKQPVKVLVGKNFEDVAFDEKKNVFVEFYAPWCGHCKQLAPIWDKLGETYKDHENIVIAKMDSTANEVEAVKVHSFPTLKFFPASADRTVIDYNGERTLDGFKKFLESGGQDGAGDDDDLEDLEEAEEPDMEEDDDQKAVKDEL

The target of the test is MTP (Homo sapiens, UniProt P55157). Briefly: MTP assay (triglyceride transfer from donor to acceptor vesicles). Format: biochemical. The settings on record: MTP activity, percent triglyceride transfer from donor to acceptor vesicles, 37° C. The procedure:
MTP activity was measured using an assay similar to one described by J. R. Wetterau and D. B. Zilversmit in Chemistry and Physics of Lipids, 38, 205-222 (1985). To prepare the donor and acceptor vesicles, the appropriate lipids in chloroform were put into a glass test tube and dried under a stream of nitrogen. A buffer containing 15 mM Tris-HCl pH 7.5, 1 mM EDTA, 40 mM NaCl, 0.02% NaN3 (assay buffer) was added to the dried lipid. The mixture was vortexed briefly and the lipids were then allowed to hydrate for 20 minutes on ice. Vesicles were then prepared by bath sonication (Branson 2200) at room temperature for maximum 15 minutes. Butylated hydroxytoluene was included in all vesicle preparations at a concentration of 0.1%. The lipid transfer assay mixture contained donor vesicles (40 nmol phosphatidylcholine, 7.5 mol % of cardiolipin and 0.25 mol % glycerol tri [1-^14C]-oleate), acceptor vesicles (240 nmol phosphatidylcholine) and 5 mg BSA in a total volume of 675 μl in a 1.5 ml microcentrifuge tube. Test compounds were added dissolved in DMSO (0.13% final concentration). After 5 minutes of pre-incubation at 37° C., the reaction was started by the addition of MTP in 100 μl dialysis buffer. The reaction was stopped by the addition of 400 μl DEAE-52 cellulose pre-equilibrated in 15 mM Tris-HCl pH 7.5, 1 mM EDTA, 0.02% NaN3 (1:1, vol/vol). The mixture was agitated for 4 minutes and centrifuged for 2 minutes at maximum speed in an Eppendorf centrifuge (4° C.) to pellet the DEAE-52-bound donor vesicles. An aliquot of the supernatant containing the acceptor liposomes was counted and the [^14C]-counts were used to calculate the percent triglyceride transfer from donor to acceptor vesicles.
The molecule `COC(=O)[C@]1(c2ccccc2)CC[C@@H](C(=O)N2CCC(NC(=O)c3cc(S(N)(=O)=O)ccc3OC)CC2)c2ccccc21` [Co. No. 52] had an IC50 of 0.627 µM.

On to `COC(=O)CC[C@H](NC(=O)[C@@]1(c2ccccc2)CC[C@H](C(=O)N2CCC(NC(=O)c3cccn(C)c3=O)CC2)c2ccccc21)C(=O)OC` [Co. No. 145], for which the IC50 is 5.38 µM.

With `Cn1cccc(C(=O)NC2CCN(C(=O)[C@H]3CC[C@@](C(=O)N[C@H](C(=O)OC(C)(C)C)c4ccccc4)(c4ccccc4)c4ccccc43)CC2)c1=O` [Co. No. 177], the concentration for half-maximal inhibition (IC50) is 1.62 µM.

In turn, `COC(=O)[C@H](CCCCNC(C)=O)NC(=O)[C@@]1(c2ccccc2)CC[C@H](C(=O)N2CCC(NC(=O)c3ccccc3OC)CC2)c2ccccc21` [Co. No. 130] had an IC50 of 0.262 µM.

In turn, `CCOC(=O)[C@H](CC(C)C)NC(=O)[C@@]1(c2ccccc2)CC[C@H](C(=O)N2CCC(NC(=O)c3cccn(C)c3=O)CC2)c2ccccc21` [Co. No. 141] gave an IC50 of 1.86 µM.

`Cn1cccc(C(=O)NC2CCN(C(=O)C3CC[C@@](C(=O)NCC(=O)OC(C)(C)C)(c4ccccc4)c4ccccc43)CC2)c1=O` (stereo partly shown) [Co. No. 160] gave a half-maximal inhibitory concentration (IC50) of 0.366 µM.

For the molecule `CCOC(=O)NCCCC[C@H](CC(=O)[C@@]1(c2ccccc2)CC[C@H](C(=O)N2CCC(NC(=O)c3cccn(C)c3=O)CC2)c2ccccc21)C(=O)OCC` [Co. No. 232], the IC50 was 3.33 µM. This IC50 lies about 9.1-fold higher than the previous one.

Take `COc1ccccc1C(=O)NC1CCN(C(=O)[C@H]2CC[C@@](C(=O)N[C@@H](CCC(=O)O)C(=O)O)(c3ccccc3)c3ccccc32)CC1` [Co. No. 122]: the midpoint of inhibition, the IC50, lay at 4.75 µM.

Take `CC(C)C[C@H](NC(=O)[C@@]1(c2ccccc2)CC[C@H](C(=O)N2CCC(NC(=O)c3cccn(C)c3=O)CC2)c2ccccc21)C(=O)OC(C)(C)C` [Co. No. 167]: the IC50 was 0.793 µM.

Regarding `CCOC(=O)[C@@H](CCCCNC(=O)OC(C)C)NC(=O)[C@@]1(c2ccccc2)CC[C@H](C(=O)N2CCC(NC(=O)c3cccn(C)c3=O)CC2)c2ccccc21` [Co. No. 241], half-maximal inhibition (IC50) required 0.243 µM.

Take `C=CCOC(=O)[C@@]1(c2ccccc2)CC[C@H](C(=O)N2CCC(NC(=O)c3ccccc3N3CCN(C)CC3)CC2)c2ccccc21` [Co. No. 269]: half-maximal inhibition (IC50) required 0.00845 µM.

Molecule `CCOC(=O)C1CCCCN1C(=O)[C@@]1(c2ccccc2)CC[C@H](C(=O)N2CCC(NC(=O)c3cccn(C)c3=O)CC2)c2ccccc21` (stereo partly shown) [Co. No. 144] showed an IC50 of 3.83 µM.

Regarding `COc1ccccc1C(=O)NC1CCN(C(=O)[C@H]2CC[C@@](C(=O)N[C@@H](Cc3ccc(O)cc3)C(=O)O)(c3ccccc3)c3ccccc32)CC1` [Co. No. 126], the IC50 is 6.19 µM. This IC50 is about 1.6-fold higher than that of the molecule before.

As to `COc1ccccc1C(=O)NC1CCN(C(=O)[C@H]2CC[C@](C(N)=O)(c3ccccc3)c3ccccc32)CC1` [Co. No. 37], it took 7.83 µM to reach half-maximal inhibition (IC50).

Molecule `CN(CC(=O)OC(C)(C)C)C(=O)[C@@]1(c2ccccc2)CC[C@H](C(=O)N2CCC(NC(=O)c3cccn(C)c3=O)CC2)c2ccccc21` [Co. No. 163] gave an IC50 of 1.45 µM.

Consider `CCOC(=O)[C@H](CO)NC(=O)[C@@]1(c2ccccc2)CC[C@H](C(=O)N2CCC(NC(=O)c3cccn(C)c3=O)CC2)c2ccccc21` [Co. No. 142], for which the IC50 is more than 10 µM.

`COc1ccccc1C(=O)NC1CCN(C(=O)[C@H]2CC[C@@](C(=O)N[C@H](C(=O)O)c3ccccc3)(c3ccccc3)c3ccccc32)CC1` [Co. No. 124]: the IC50 is more than 10 µM.

Regarding `CC(C)[C@@H](NC(=O)[C@@]1(c2ccccc2)CC[C@H](C(=O)N2CCC(NC(=O)c3cccn(C)c3=O)CC2)c2ccccc21)C(=O)O` [Co. No. 188], the IC50 is more than 10 µM.

The molecule `Cn1cccc(C(=O)NC2CCN(C(=O)[C@H]3CC[C@@](C(=O)N[C@@H](COC(C)(C)C)C(=O)OC(C)(C)C)(c4ccccc4)c4ccccc43)CC2)c1=O` [Co. No. 168] had an IC50 of 0.697 µM.

For the molecule `Cn1cccc(C(=O)NC2CCN(C(=O)[C@H]3CC[C@@](C(=O)N4C[C@H](OC(C)(C)C)C[C@H]4C(=O)OC(C)(C)C)(c4ccccc4)c4ccccc43)CC2)c1=O` [Co. No. 175], half-maximal inhibition (IC50) required 3.72 µM.

`COc1ccccc1C(=O)NC1CCN(C(=O)[C@H]2CC[C@@](C(=O)N3CCCC3C(=O)OC(C)(C)C)(c3ccccc3)c3ccccc32)CC1` (stereo partly shown) [Co. No. 94]: the midpoint of inhibition, the IC50, lay at 0.21 µM.

`Cn1cccc(C(=O)NC2CCN(C(=O)[C@H]3CC[C@@](C(=O)N4CCC[C@@H]4C(=O)O)(c4ccccc4)c4ccccc43)CC2)c1=O` [Co. No. 191]: the concentration for half-maximal inhibition (IC50) was more than 10 µM.

Turning to `COc1ccccc1C(=O)NC1CCN(C(=O)[C@H]2CC[C@@](C(=O)N[C@@H](Cc3ccccc3)C(=O)O)(c3ccccc3)c3ccccc32)CC1` [Co. No. 125], the IC50 is 8.61 µM.

On to `CCOC(=O)[C@]1(c2ccccc2)CC[C@H](C(=O)N2CCN(C(=O)c3ccccc3OC)CC2)c2ccccc21` [Co. No. 30], for which the 50% inhibitory concentration (IC50) is 0.601 µM. This IC50 is about 14-fold lower than that of the molecule before.

`COc1ccccc1C(=O)NC1CCN(C(=O)[C@H]2CC[C@@](C(=O)N3CCC[C@@H]3C(=O)O)(c3ccccc3)c3ccccc32)CC1` [Co. No. 98] showed an IC50 of 4.75 µM.

In turn, `Cn1cccc(C(=O)NC2CCN(C(=O)[C@H]3CC[C@@](C(=O)N4CCC[C@H]4C(=O)OC(C)(C)C)(c4ccccc4)c4ccccc43)CC2)c1=O` [Co. No. 173] gave an IC50 of 3.3 µM.

On to `COC(=O)[C@@H]1C[C@@H](O)CN1C(=O)[C@@]1(c2ccccc2)CC[C@H](C(=O)N2CCC(NC(=O)c3cccn(C)c3=O)CC2)c2ccccc21` [Co. No. 151], for which the IC50 is more than 10 µM.

Consider `C[C@@H](NC(=O)[C@@]1(c2ccccc2)CC[C@H](C(=O)N2CCC(NC(=O)c3cccn(C)c3=O)CC2)c2ccccc21)C(=O)OC(C)(C)C` [Co. No. 162], for which the IC50 was 1.79 µM. This counts as single-digit micromolar.

For `CCOC(=O)[C@@H](NC(=O)[C@@]1(c2ccccc2)CC[C@H](C(=O)N2CCC(NC(=O)c3cccn(C)c3=O)CC2)c2ccccc21)C(C)C` [Co. No. 139], inhibition was half-maximal at 0.826 µM (IC50).

`CCOC(=O)[C@H](CCCCNC(=O)OC(C)C)NC(=O)[C@@]1(c2ccccc2)CC[C@H](C(=O)N2CCC(NC(=O)c3cccn(C)c3=O)CC2)c2ccccc21` [Co. No. 234] showed a 50% inhibitory concentration (IC50) of more than 10 µM.

`Cn1cccc(C(=O)NC2CCN(C(=O)[C@H]3CC[C@@](C(=O)N[C@@H](C(=O)OC(C)(C)C)c4ccccc4)(c4ccccc4)c4ccccc43)CC2)c1=O` [Co. No. 176] showed an IC50 of 1.88 µM.

As to `CCOC(=O)[C@H](CO)NC(=O)[C@@]1(c2ccccc2)CC[C@H](C(=O)N2CCC(NC(=O)c3ccccc3OC)CC2)c2ccccc21` [Co. No. 71], 0.493 µM corresponded to half-maximal inhibition (IC50).

The molecule `COc1ccccc1C(=O)NC1CCN(C(=O)[C@H]2CC[C@@](C(=O)N[C@@H](C(=O)OC(C)(C)C)c3ccccc3)(c3ccccc3)c3ccccc32)CC1` [Co. No. 95] showed an IC50 of 0.14 µM.

For the molecule `COc1ccccc1C(=O)NC1CCN(C(=O)[C@H]2CC[C@@](C(=O)N3C[C@H](O)C[C@H]3C(=O)O)(c3ccccc3)c3ccccc32)CC1` [Co. No. 92], the IC50 is more than 10 µM.

`COc1ccccc1C(=O)NC1CCN(C(=O)[C@H]2CC[C@@](C(=O)N3CCC[C@H]3C(=O)O)(c3ccccc3)c3ccccc32)CC1` [Co. No. 123] had an IC50 of 3.82 µM. In other words, the single-digit micromolar range.

Molecule `CCOC(=O)[C@@H](C)NC(=O)[C@@]1(c2ccccc2)CC[C@H](C(=O)N2CCC(NC(=O)c3cccn(C)c3=O)CC2)c2ccccc21` [Co. No. 136] gave an IC50 of 1.09 µM.

In turn, `CCOC(=O)[C@H](Cc1ccccc1)NC(=O)[C@@]1(c2ccccc2)CC[C@H](C(=O)N2CCC(NC(=O)c3cccn(C)c3=O)CC2)c2ccccc21` [Co. No. 154] showed an IC50 of 1.85 µM.

For the origin of these results see patent publication US8114880B2, “Piperidine or piperazine substituted tetrahydro-naphthalene-1-carboxylic acid MTP inhibiting compounds” (Janssen Pharmaceutica N.V., priority 2006, dated 2012).
